Measurements: ChEMBL document CHEMBL1146937, “Nitrobenzylcarbamate prodrugs of cytotoxic acridines for potential use with nitroreductase gene-directed enzyme prodrug therapy” (Bioorg Med Chem Lett, 2006)
Activity calls are given as the source filed them. No cut-off for these calls is given here.

Tests used:
Type in all cases: functional, cell-based
[1] = system: A549; assay: Antiproliferative activity against A549 cell line; conditions: Homo sapiens
[2] = system: V79; assay: Antiproliferative activity against V79 cell line; conditions: Cricetulus griseus
[3] = system: HT-29; assay: Antiproliferative activity against HT29 cell line; conditions: Homo sapiens
[4] = system: L1210; assay: Antiproliferative activity against L1210 cell line; conditions: Mus musculus

SMILES	IC50 [1] [µM]	IC50 [2] [µM]	IC50 [3] [µM]	Activity [4]
O=C(Nc1ccc2cc3ccccc3nc2c1CO)OCc1ccc([N+](=O)[O-])cc1	3.5	3.5	2.5	
O=C(Nc1ccc2cc3ccccc3nc2c1COC(=O)OCc1ccc([N+](=O)[O-])cc1)OCc1ccc([N+](=O)[O-])cc1	> 10	> 10	9	
Nc1ccc2cc3ccccc3nc2c1CO				Active
CCOC(=O)Nc1ccc2cc3ccccc3nc2c1COC(=O)OCC			4.5	
